Measurements published in patent US6235761A, “Compound, composition and method for treating cancer” (priority 1999, dated 2001).

Tests used:
CAKI-1 renal tumor = assay: sc CAKI-1 renal tumor in athymic mice (Table 2); assay type: in vivo, human tumor in athymic mice (Ncr-nu); details: for T-C / Tumor-Free Survival/Total: days 19-23
Experimental: (§1) This Example illustrates the efficacy of penclomedine and 4-demethylpenclomedine in the treatment of cancer. MX-1 mammary tumor xenograft was subcutaneously implanted into mice, and the mice were exposed to the compounds. The testing of the mice was performed following a published procedure. See, e.g., Plowman et al., supra; Geran et al., Cancer Chemother. Rep., Part 2, 1-55 (1972); Developmental Therapeutics Program, Division of Cancer Treatment, NCI, in In Vivo Models 1976-1982, NIH Publication No. 84-2635, Washington D.C., U.S. Govt. Printing Office (1984).
(§2) This Example further illustrates the efficacy of penclomedine and 4-demethylpenclomedine in the treatment of cancer. The compounds were tested in vivo on mice by the procedure set forth in Example 2. The results obtained are set forth in Table 2 and confirm that 4-demethyl-penclomedine is active against cancer, particularly mammary, colon, and renal cancer.
(§3) ^a Athymic mice (Ncr-nu) were implanted either intracranially (ic) with
(§4) […] MX-1 mammary tumor cells or subcutaneously (sc) with fragments of
(§5) human tumors (CAKI-, renal; HT29, colon; MX-1, mammary).
^b The difference in the median of time poststaging for tumors to
double in mass: T (treated mice), C (control mice)

MX-1 mammary tumor cells = assay: ic MX-1 mammary tumor in athymic mice, increased life span (Table 2); assay type: in vivo, human tumor in athymic mice (Ncr-nu); details: days 1-5
Experimental: as §1, §2, §3, §4, §5
^c % ILS (increased life span) values are not provided where the mice
were sacrificed when tumors reached 4 g mass.

[1] = Distribution of penclomedine and its metabolites in mouse tissues; assay type: in vivo, CD2F1 mice; details: for level in liver: mouse liver versus other tissues
Experimental: CD2F1 Mice were obtained from Harlan Sprague-Dawley (Frederick, Md.). During the course of this study, mice were housed in polyethylene shoe box cages without bedding and given access to food and water. Four mice were used per time point.
^14 C-Penclomedine (specific activity 17.6 and 18.9 mCi/mM, labeled at CCl3) was obtained from Research Triangle Institute (Research Triangle Park, N.C.) and stored at -20° C. The site of radiolabel has been conserved in all penclomedine metabolites identified to date. The composition of the radioactive material was determined to be 99% ^14 C-penclomedine, by HPLC coupled with radiochemical detection.
^14 C-penclomedine (1 mCi/ml in ethanol) was added to the clinical penclomedine emulsion to give an activity of […] (4% ethanol final concentration). The mice were administered the above penclomedine formulation at 40 mg/kg (120 mg/m^2, […]) either intravenously via tail vein or orally via gavage. At 1, 2, 4, and 22 hours after intravenous administration and 2,4, 6, and 22 hours after oral administration, animals were euthanized with carbon dioxide and blood tissues were collected. Blood tissues from each time point were pooled. Blood was centrifuged and plasma and red cells were separated; tissues were homogenized in 3 volumes of 100 mM ammonium formate buffer pH 6.5. Urinary output was estimated by washing the cages with water after removing food and feces and concentrating these cage washings.
A 1 ml aliquot of tissue homogenate or a […] was acidified with 200 ml of 0.7 M ammonium phosphate pH 2.7, then 3 ml of ethyl acetate was added. This mixture was vortexed, centrifuged and the organic layer was collected. Fifty microliters of DMSO were added, and the ethyl acetate was concentrated to approximately […] with a stream of dry nitrogen. Fifty microliters of acetonitrile were added to this residue, and the resulting solution was analyzed by HPLC. Human plasma was processed identically to mouse plasma with the exception that 500 ml of plasma was extracted. Concentrated cage washings were analyzed by HPLC without further processing.
Plasma and tissue protein binding data were measured on the residue of the above extractions. The aqueous phase was washed with 5 ml of ethanol, centrifuged, and the ethanol insoluble precipitate was washed again with 5 ml ethanol. After centrifugation the pellet was resuspended in 0.5 ml 6 M guanidinium chloride, added to 10 ml 3a70B scintillation cocktail (Research Products International Corp., Mount Prospect, Ill.), and counted for ^14 C.
HPLC Assays: The HPLC system consisted of a Hewlett-Packard Series II 1090 liquid chromatograph with diode array detector (Hewlett-Packard, Palo Alto, Calif.). The column used was an Alltech Adsorbosphere HS C18 5 m 250×4.6 mm column (Alltech Associates, Deerfield, Ill.). The system used a gradient elution consisting of 100% 10 mM ammonium phosphate buffer pH 2.7 progressing to 100% acetonitrile over 25 minutes at 1 ml/min. Detection was performed by means of ultraviolet absorbance at 240 nm as well as by means of radioactivity using a Radiomatic Flo-One/Beta A140 radioactive flow detector (Packard Instrument Co., Downers Grove, Ill.) equipped with a […] and Flo-Scint VI scintillation cocktail at a 2:1 ratio.
^14 C-Penclomedine derived radioactivity was determined in mouse urine samples collected at 1, 2, 4, and 22 hours following intravenous and oral administration of^14 C-penclomedine. […] There were considerable differences in metabolite distribution among the different tissues. […] Most compounds present in the 2 hour samples were detectable in the 22 hour samples at levels from 10% to 50% of those seen at 2 hours.

[2] = test system: MX-1 Mammary Tumor Xenograft; assay: Subcutaneously-implanted MX-1 mammary tumor xenograft in mice (Table 1); assay type: in vivo, human tumor in mice; details: for Days to 2 Doublings / Non-Specific Deaths / Total / Tumor Free Survival/Total / Tumor Delay (T-C) / Tumor Regression, Complete / Tumor Regression, Partial / Duration of regression, Med: x5, from Day 12; for Tumor Delay (T-C): control 8.0 days; for Tumor Regression, Complete / Tumor Regression, Partial: number of mice
Experimental: as §1
Response of Subcutaneously-Implanted MX-1 Mammary Tumor Xenograft to
^1 Treatment started on Day 12 following tumor implant.
^2 Nonspecific deaths: A treated, tumored animal was presumed to be a
^3 Tumor regression was scored (excluding nonspecific deaths),
^4 Duration of regression: the interval during which a tumor classified
^5 Evaluation size: this value is the tumor mass selected at one or two
^6 Time required for tumor mass doubling: the time required for a tumor
^7 T-C (days): the difference in the median of times postimplant for […]

[3] = 135 mg/kg/dose oral, highest dosage level

With `COc1nc(C(Cl)(Cl)Cl)c(Cl)c(O)c1Cl` [4-Demethylpenclomedine, 3,5-dichloro-2-methoxy-4-hydroxy-6-(trichloromethyl)-pyridine] the T-C (CAKI-1 renal tumor; 90 mg/kg/dose IP) was 14.5 days, the “Tumor-Free Survival/Total” value (CAKI-1 renal tumor; 90 mg/kg/dose IP) was 0/5 and the “activity against renal tumors (T-C)” value (CAKI-1 renal tumor; Table 2) was “active against MX-1, colon, and renal tumors”. The “Median % ILS (dying mice only)” value (MX-1 mammary tumor cells; 90 mg/kg/dose IP) was “+60%”, the “Tumor-Free Survival/Total” value (MX-1 mammary tumor cells; 90 mg/kg/dose IP) was 0/5 and the “Median % ILS (dying mice only)” value (MX-1 mammary tumor cells; [3]) was “+66%”. The “Tumor-Free Survival/Total” value (MX-1 mammary tumor cells; [3]) was 1/5, the “accumulation in fatty tissues compared with penclomedine” value ([1]; mouse) was “does not accumulate in fatty tissues as much as penclomedine” and the level in liver ([1]; 14C-penclomedine dosed) was “liver contained the highest levels of demethylpenclomedine”. The “Days to 2 Doublings” value ([2]; 60 mg/kg IP) was 23.4 days, the “Non-Specific Deaths / Total” value ([2]; 60 mg/kg IP) was 0/5 and the “Tumor Free Survival/Total” value ([2]; 60 mg/kg IP) was 2/5. The “Tumor Delay (T-C)” value ([2]; 60 mg/kg IP) was 15.4 days, the “Tumor Regression, Complete” value ([2]; 60 mg/kg IP) was 2 and the “Tumor Regression, Partial” value ([2]; 60 mg/kg IP) was 0. The “Days to 2 Doublings” value ([2]; 90 mg/kg IP) was over 49.0 days, the “Duration of regression, Med” value ([2]; 90 mg/kg IP) was 32.5 days and the “Non-Specific Deaths / Total” value ([2]; 90 mg/kg IP) was 0/5. For the same molecule, the “Tumor Free Survival/Total” value ([2]; 90 mg/kg IP) was 3/5, the “Tumor Delay (T-C)” value ([2]; 90 mg/kg IP) was over 41.0 days and the “Tumor Regression, Complete” value ([2]; 90 mg/kg IP) was 5. For the same molecule, the “Tumor Regression, Partial” value ([2]; 90 mg/kg IP) was 0, the “Days to 2 Doublings” value ([2]; 135 mg/kg IP) was over 49.0 days and the “Duration of regression, Med” value ([2]; 135 mg/kg IP) was 35.7 days. The “Non-Specific Deaths / Total” value ([2]; 135 mg/kg IP) was 1/5, the “Tumor Free Survival/Total” value ([2]; 135 mg/kg IP) was 3/5 and the “Tumor Delay (T-C)” value ([2]; 135 mg/kg IP) was over 41.0 days. For the same molecule, the “Tumor Regression, Complete” value ([2]; 135 mg/kg IP) was 4, the “Tumor Regression, Partial” value ([2]; 135 mg/kg IP) was 0 and the “tumor growth delay, comparison of the two compounds” value ([2]; Table 1) was “identical tumor growth delay”.

In the case of `COc1nc(C(Cl)(Cl)Cl)c(Cl)c(OC)c1Cl` [Penclomedine, 3,5-dichloro-2,4-dimethoxy-6-(trichloromethyl)pyridine], the T-C (CAKI-1 renal tumor; 135 mg/kg/dose IP) is reported as 15.3 days, the “Tumor-Free Survival/Total” value (CAKI-1 renal tumor; 135 mg/kg/dose IP) is reported as 0/5 and the “Median % ILS (dying mice only)” value (MX-1 mammary tumor cells; 90 mg/kg/dose IP) is reported as “+88%”. For the same molecule, the “Tumor-Free Survival/Total” value (MX-1 mammary tumor cells; 90 mg/kg/dose IP) was 0/5, the “Median % ILS (dying mice only)” value (MX-1 mammary tumor cells; 90 mg/kg/dose oral) was “+72%” and the “Tumor-Free Survival/Total” value (MX-1 mammary tumor cells; 90 mg/kg/dose oral) was 0/5. The “Tissue Concentration” value ([1]; brain, 2 hours, i.v. 14C-penclomedine 40 mg/kg) was 1.30 nmoles/gram wet tissue, the “Tissue Concentration” value ([1]; brain, 2 hours, p.o. 14C-penclomedine 40 mg/kg) was 2.16 nmoles/gram wet tissue and the “Tissue Concentration” value ([1]; carcass, 2 hours, i.v. 14C-penclomedine 40 mg/kg) was 14.8 nmoles/gram wet tissue. The “Tissue Concentration” value ([1]; carcass, 2 hours, p.o. 14C-penclomedine 40 mg/kg) was 55.2 nmoles/gram wet tissue, the “Tissue Concentration” value ([1]; carcass, 22 hours, i.v. 14C-penclomedine 40 mg/kg) was 5.15 nmoles/gram wet tissue and the “Tissue Concentration” value ([1]; carcass, 22 hours, p.o. 14C-penclomedine 40 mg/kg) was 2.16 nmoles/gram wet tissue. The “Tissue Concentration” value ([1]; fat, 2 hours, i.v. 14C-penclomedine 40 mg/kg) was 15.8 nmoles/gram wet tissue, the “Tissue Concentration” value ([1]; fat, 2 hours, p.o. 14C-penclomedine 40 mg/kg) was 18.55 nmoles/gram wet tissue and the “Tissue Concentration” value ([1]; fat, 22 hours, i.v. 14C-penclomedine 40 mg/kg) was 8.90 nmoles/gram wet tissue. For the same molecule, the “Tissue Concentration” value ([1]; kidney, 2 hours, i.v. 14C-penclomedine 40 mg/kg) was 6.45 nmoles/gram wet tissue, the “Tissue Concentration” value ([1]; kidney, 2 hours, p.o. 14C-penclomedine 40 mg/kg) was 7.30 nmoles/gram wet tissue and the “Tissue Concentration” value ([1]; kidney, 22 hours, i.v. 14C-penclomedine 40 mg/kg) was 1.21 nmoles/gram wet tissue. For the same molecule, the “Tissue Concentration” value ([1]; kidney, 22 hours, p.o. 14C-penclomedine 40 mg/kg) was 0.85 nmoles/gram wet tissue, the “Tissue Concentration” value ([1]; liver, 2 hours, i.v. 14C-penclomedine 40 mg/kg) was 0.69 nmoles/gram wet tissue and the “Tissue Concentration” value ([1]; liver, 2 hours, p.o. 14C-penclomedine 40 mg/kg) was 1.35 nmoles/gram wet tissue. For the same molecule, the “Tissue Concentration” value ([1]; liver, 22 hours, p.o. 14C-penclomedine 40 mg/kg) was 0.38 nmoles/gram wet tissue, the level in liver ([1]; 14C-penclomedine dosed) was “the lowest levels of penclomedine” and the “tissues with highest levels” value ([1]; mouse, 14C-penclomedine dosed) was “Highest levels of penclomedine were detected in the fat and carcass”. For the same molecule, the “detectability in 2 hour tissue samples” value ([1]; mouse, 2 hours) was “All 2 hour tissue samples contained detectable amounts of penclomedine”, the “Days to 2 Doublings” value ([2]; 60 mg/kg IP) was over 49.0 days and the “Non-Specific Deaths / Total” value ([2]; 60 mg/kg IP) was 0/5. For the same molecule, the “Tumor Free Survival/Total” value ([2]; 60 mg/kg IP) was 4/5, the “Tumor Delay (T-C)” value ([2]; 60 mg/kg IP) was over 41.0 days and the “Tumor Regression, Complete” value ([2]; 60 mg/kg IP) was 5. For the same molecule, the “Tumor Regression, Partial” value ([2]; 60 mg/kg IP) was 0, the “Days to 2 Doublings” value ([2]; 90 mg/kg IP) was over 49.0 days and the “Non-Specific Deaths / Total” value ([2]; 90 mg/kg IP) was 0/5. For the same molecule, the “Tumor Free Survival/Total” value ([2]; 90 mg/kg IP) was 5/5, the “Tumor Delay (T-C)” value ([2]; 90 mg/kg IP) was over 41.0 days and the “Tumor Regression, Complete” value ([2]; 90 mg/kg IP) was 5. For the same molecule, the “Tumor Regression, Partial” value ([2]; 90 mg/kg IP) was 0, the “Days to 2 Doublings” value ([2]; 135 mg/kg IP) was over 49.0 days and the “Non-Specific Deaths / Total” value ([2]; 135 mg/kg IP) was 0/5. For the same molecule, the “Tumor Free Survival/Total” value ([2]; 135 mg/kg IP) was 5/5, the “Tumor Delay (T-C)” value ([2]; 135 mg/kg IP) was over 41.0 days and the “Tumor Regression, Complete” value ([2]; 135 mg/kg IP) was 5. The “Tumor Regression, Partial” value ([2]; 135 mg/kg IP) was 0, the “survival rate, compared with 4-demethylpenclomedine” value ([2]; Table 1) was “slightly higher survival rate” and the “tumor growth delay, comparison of the two compounds” value ([2]; Table 1) was “identical tumor growth delay”.
